# Experimental data reported in PMC9960778, “Polymer-Antimicrobial Peptide Constructs with Tailored Drug-Release Behavior” (Pharmaceutics, 2023).
# Starred links: 1 amine or outer side, 2 acyl side, 3 side chain; linkers in the order of their positions; H or OH if unused. Non-standard residues stand in square brackets, D forms with d. Residues, ends and D or L forms follow the SMILES beside them. No end group written: not given here. *: point of attachment. X1 = N=c1ccc2c(-c3ccccc3C(=O)*)c3ccc(N)c(S(=O)(=O)O)c3oc-2c1S(=O)(=O)O; NMeGABA = CN(CCCC(=O)[*:2])[*:1]
# How the values were obtained:
# [1] = test system: Acinetobacter baumanii (CCM 2355); type: cell-based; details: A. baumanii (Gram-negative); Mueller-Hinton broth/PBS 1:1, 35 °C, OD 625 nm every 60 min for 20 h; MIC as molar concentration of PEP; mean of at least three independent experiments
# Method: (§1) The antibacterial properties of HPMA-PEP constructs were tested against Acinetobacter baumanii (CCM 2355), Escherichia coli (CCM 4517), Staphylococcus epidermidis (CCM 2124), and Staphylococcus aureus (CCM 4516) (Czech Collection of Microorganisms, Brno, Czech Republic) in vitro. A single colony of the test microorganism was transferred into 5 mL of sterile broth (Luria-Bertani medium, Sigma) and cultivated overnight at 37 °C to prepare a bacterial test suspension in a double-concentrated Mueller-Hinton broth at a density equivalent to a 0.5 McFarland standard. Desired weight of lyophilized PEP or polymer-PEP was resuspended in sterile PBS and a concentration series was prepared. The bacterial suspension was then mixed with different concentrations of the PEP or polymer-PEP construct diluted in 1:1 in PBS and cultured at 35 °C. The bacterial growth was measured spectrophotometrically at 625 nm every 60 min for 20 h using an EON microplate spectrophotometer (Agilent Technologies, Santa Clara, CA, USA).
# (§2) The MIC was determined as the lowest concentration of PEP or polymer-PEP construct without observable bacterial growth. MIC was calculated as the molar concentration of PEP. […] If the bacteria were absent after 24 h of incubation, it was termed MBC.
# [2] = test system: Escherichia coli (CCM 4517); type: cell-based; details: E. coli (Gram-negative); Mueller-Hinton broth/PBS 1:1, 35 °C, OD 625 nm every 60 min for 20 h; MIC as molar concentration of PEP; mean of at least three independent experiments
# Method: as §1, §2
# [3] = biological target: cathepsin B (Homo sapiens, UniProt P07858); type: in vitro ADME
# Method: The enzymatic activity of cathepsin B was probed immediately before the release measurements as described previously. The enzymolysis was monitored by HPLC and the rate of PEP release was calculated from the area of the corresponding polymer peaks from the fluorescent detector (excitation 280 nm, emission 350 nm of Trp in PEP). The spontaneous hydrolysis and release of PEP were measured by HPLC in two different PBS buffers to mimic the bloodstream, pH 7.4 and pH 5.5, at 37 °C.
# [4] = test system: Staphylococcus epidermidis (CCM 2124); type: cell-based; details: S. epidermidis (Gram-positive); Mueller-Hinton broth/PBS 1:1, 35 °C, OD 625 nm every 60 min for 20 h; MIC as molar concentration of PEP; mean of at least three independent experiments
# Method: as §1, §2
# [5] = test system: E. coli; assay: Fluorescent microscopy of labeled peptide/constructs with bacteria; type: cell-based, Escherichia coli; details: labeled sample added at amount corresponding to its MIC, spinning disc confocal, ex 488 nm, em 525 nm
# Method: The densities of the fresh overnight bacterial cultures were adjusted to the 0.5 McFarland standard, and 100 µL was placed in a sterile 96-well plate. The plates were incubated at room temperature for 2 h before the amount of fluorescently labeled F-PEP or F-P-PEP construct corresponding to its MIC was added to the appropriate wells. Images were captured immediately using a spinning disc confocal microscope (Andor xD revolution) on the Olympus IX81 platform and analyzed with iQ3 software, the excitation wavelength was 488 nm and the emission wavelength was 525 nm.
# [6] = test system: S. aureus; details: labeled sample added at amount corresponding to its MIC, spinning disc confocal, ex 488 nm, em 525 nm
# Method: The densities of the fresh overnight bacterial cultures were adjusted to the 0.5 McFarland standard, and 100 µL was placed in a sterile 96-well plate. […] Images were captured immediately using a spinning disc confocal microscope (Andor xD revolution) on the Olympus IX81 platform and analyzed with iQ3 software, the excitation wavelength was 488 nm and the emission wavelength was 525 nm.
# [7] = test system: E. coli; assay: Transmission electron microscopy (TEM) of treated bacteria; type: cell-based, Escherichia coli; details: 2 × MIC, 2.5 h of incubation, negative staining
# Method: (§3) Bacteria in the exponential growth phase were mixed with the PEP or polymer-PEP constructs at a concentration equivalent to 2×MIC. After 2.5 h of incubation, 10 µL of the suspension was placed on a copper carbon-coated electron microscopic copper grid (Sigma Aldrich, Saint Louis, MO, USA) and left to adhere for 10 min. Then, the grid was washed twice with dH2O and stained with 0.8% sodium silicotungstate (Agar Scientific, Stansted, UK), pH 7.4, for 40 s. The samples were analyzed using a JEOL JEM-1010 instrument (JEOL Ltd., Tokyo, Japan) with an SIS MegaView III digital camera (Soft Imaging Systems) at acceleration voltage 80 kV and AnalySIS Software 2.0.
# [8] = test system: S. aureus; assay: as above; type: cell-based, Staphylococcus aureus; details: 2×MIC, 2.5 h of incubation, negative staining
# Method: as §3
# [9] = test system: Staphylococcus aureus (CCM 4516); type: cell-based; details: S. aureus (Gram-positive); Mueller-Hinton broth/PBS 1:1, 35 °C, OD 625 nm every 60 min for 20 h; MIC as molar concentration of PEP; mean of at least three independent experiments
# Method: as §1, §2
Compound,MIC [1],MIC [2],PEP release in contact with cathepsin B [3],MIC [4],Interaction / accumulation on bacterial cells (fluorescence microscopy) [5],Interaction / accumulation on bacterial cells (fluorescence microscopy) [6],Effect on bacterial cell morphology (TEM) [7],Effect on bacterial cell morphology (TEM) [8],MIC [9]
"p(HPMA-co-Ma-β-Ala-DBCO-ValCit-PEP) [P-ValCit-PEP, enzymatically cleavable polymer-PEP construct, ValCit spacer]",16.8 µM,134 µM,not releasing the PEP,,,,,,
p(HPMA-co-Ma-β-Ala-ATTO-488-co-Ma-β-Ala-DBCO-azide-PEP) [F-P-PEP],38.7 µM,77.5 µM,,77.5 µM,accumulation of F-PEP and F-P-PEP on the bacterial cells,considerably less F-P-PEP accumulated on S. aureus,,,
"p(HPMA-co-Ma-β-Ala-DBCO-azide-PEP) [P-PEP, non-cleavable polymer-PEP construct, control system]",9.3 µM,74.1 µM,,14.8 µM,,,induced cell morphological changes,"induced cell morphological changes, cell wall disruption and leakage of the cytoplasm",
CC[C@H](C)[C@H](NC(=O)[C@H](CCCCN)NC(=O)[C@H](CCCCN)NC(=O)[C@H](CC(C)C)NC(=O)[C@H](CC(C)C)NC(=O)[C@H](CCCCN)NC(=O)[C@H](CCSC)NC(=O)[C@H](Cc1c[nH]c2ccccc12)NC(=O)[C@H](CCCCN)NC(=O)CNC(=O)CCCN(C)C(=O)c1ccccc1-c1c2ccc(=N)c(S(=O)(=O)O)c-2oc2c(S(=O)(=O)O)c(N)ccc12)C(=O)N[C@@H](CC(C)C)C(=O)N[C@@H](CCCCN)C(N)=O [F-PEP] (X1-[NMeGABA]GKWMKLLKKILK-NH2),36.5 µM,18.2 µM,,29.2 µM,accumulation of F-PEP and F-P-PEP on the bacterial cells,,,,72.9 µM
GKWMKLLKKILK-NH2 [PEP],5 µM,5 µM,,3.4 µM,,,,,10 µM
